Data published in patent US20240245791A1, “METHODS AND COMPOSITIONS FOR LOCALIZATION OF GROWTH FACTORS” (Arizona Board of Regents on Behalf of the University of …, priority 2021, published 2024).
Read-outs that look alike come from different tables or passages of the source.

Assays:
[1] = tested on: collagen IV sites; conditions: unconjugated VEGF; limited to the number of collagen IV sites available; cited from earlier work
[2] = tested on: collagen IV; conditions: vs scrambled peptide control biotin-CBPi-QK; measured using Alexafluor 488 streptavidin
[3] = tested on: collagen IV; assay: binding assay to collagen IV of CBP-VEGF vs CBPi-VEGF, ELISA for VEGF121; conditions: vs scrambled peptide control CBPi-VEGF; measured using an ELISA for VEGF121
Description: The result is measured using an ELISA for VEGF121.

VEGF
share of VEGF added to a scaffold that will bind [1]: 5%

biotin-CQDSETRT-KLTWQELYQLKYKGI-COOH (SEQ ID NO: 16) [biotin-CBP-QK]
binding to collagen IV [2]: significantly greater than the scrambled control at all concentrations

B1: CBP-VEGF: VEGF121 protein conjugated by click chemistry to collagen binding protein CBP (CQDSETRTFY, SEQ ID NO: 1) (conjugate)
chain: APMAEGGGQNHHEVVKFMDVYQRSYCHPIETLVDIFQEYPDEIEYIFKPSCVPLMRCGGCCNDEGLECVPTEESNITMQIMRIKPHQGQHIGEMSFLQHNKCECRPKKDRARQEKCDKPRR
peptide: CQDSETRTFY
binding to collagen IV [3]: significantly greater than the scrambled control at all concentrations
